In PubChem BioAssay AID248 (DTP/NCI, 2004):
Values joined by “and” are separate entries in the source; they are usually repeats but may differ in a detail not shown here. Equal entries are not always repeated. Inconclusive results and toxic doses are left out. Rule as the data show it: active = T/C of 150% or more; inactive = T/C below 125%.

Tested on: L1210 leukemia ip in BDF1 mice, survival T/C
Assay: NCI In Vivo Anticancer Drug Screen. Data for tumor model L1210 Leukemia (intraperitoneal) in B6D2F1 (BDF1) mice
Settings: endpoint: mean survival time, higher = longer survival
Procedure, shortened: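 Tumor was transplanted into mice, which were then dosed with test compound or vehicle alone. Survival was recorded for each group, and the treated figure was expressed relative to the control figure.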

[1] = dose: 100.0 mg/kg/injection, schedule: Q04DX003 (ip), vehicle: saline with Tween-80
[2] = dose: 200.0 mg/kg/injection, schedule: Q04DX003 (ip), vehicle: saline with Tween-80
[3] = dose: 400.0 mg/kg/injection, schedule: Q04DX003 (ip), vehicle: saline with Tween-80
[4] = dose: 100.0 mg/kg/injection, schedule: Q01DX009 (ip), vehicle: Klucel (hydroxypropylcellulose) (HPC)
[5] = dose: 100.0 mg/kg/injection, schedule: Q04DX003 (ip), vehicle: Klucel (hydroxypropylcellulose) (HPC)
[6] = dose: 200.0 mg/kg/injection, schedule: Q01DX009 (ip), vehicle: Klucel (hydroxypropylcellulose) (HPC)
[7] = dose: 200.0 mg/kg/injection, schedule: Q04DX003 (ip), vehicle: Klucel (hydroxypropylcellulose) (HPC)
[8] = dose: 400.0 mg/kg/injection, schedule: Q01DX009 (ip), vehicle: Klucel (hydroxypropylcellulose) (HPC)
[9] = dose: 400.0 mg/kg/injection, schedule: Q04DX003 (ip), vehicle: Klucel (hydroxypropylcellulose) (HPC)
[10] = dose: 50.0 mg/kg/injection, schedule: Q01DX009 (ip), vehicle: Klucel (hydroxypropylcellulose) (HPC)
[11] = dose: 100.0 mg/kg/injection, schedule: Q01DX001 (ip), vehicle: Klucel (hydroxypropylcellulose) (HPC)
[12] = dose: 200.0 mg/kg/injection, schedule: Q01DX001 (ip), vehicle: Klucel (hydroxypropylcellulose) (HPC)
[13] = dose: 400.0 mg/kg/injection, schedule: Q01DX001 (ip), vehicle: Klucel (hydroxypropylcellulose) (HPC)
[14] = dose: 100.0 mg/kg/injection, schedule: Q04DX002 (ip), vehicle: Klucel (hydroxypropylcellulose) (HPC)
[15] = dose: 100.0 mg/kg/injection, schedule: Q01DX001 (ip), vehicle: carboxymethylcellulose (CMC)
[16] = dose: 200.0 mg/kg/injection, schedule: Q01DX001 (ip), vehicle: carboxymethylcellulose (CMC)

Measured: T/C

c1ccc2c(c1)CCC1=C2CCCC1
inactive: dose: 100.0 mg/kg/injection, schedule: Q01DX009 (ip), vehicle: saline with Tween-80 96 % of control | [1] 101 % of control | dose: 200.0 mg/kg/injection, schedule: Q01DX009 (ip), vehicle: saline with Tween-80 98 % of control | [2] 89 % of control | dose: 400.0 mg/kg/injection, schedule: Q01DX009 (ip), vehicle: saline with Tween-80 91 % of control | [3] 92 % of control

Brc1c(-c2ccccc2)cc(-c2ccccc2)cc1-c1ccccc1
inactive: [4] 93 % of control | [5] 91 % of control | [6] 93 % of control | [7] 93 % of control | [8] 96 % of control | [9] 91 % of control

C=CCSCC(=O)c1ccccc1
inactive: [10] 90 % of control | [4] 94 % of control | [5] 101 % of control | [6] 90 % of control | [7] 97 % of control | [9] 100 % of control

CC(NC(=O)Nc1ccccc1Cl)c1ccccc1 (centres undefined)
inactive: [4] 105 % of control | [6] 105 % of control | [8] 102 % of control

c1ccc2c(c1)ccc1ccc(C3=NCCO3)cc12
inactive: [11] 94 % of control | [12] 100 % of control | [13] 100 % of control

c1ccc2c(Cc3c4ccccc4cc4ccccc34)c3ccccc3cc2c1
inactive: dose: 25.0 mg/kg/injection, schedule: Q04DX002 (ip), vehicle: Klucel (hydroxypropylcellulose) (HPC) 94 % of control | dose: 50.0 mg/kg/injection, schedule: Q04DX002 (ip), vehicle: Klucel (hydroxypropylcellulose) (HPC) 97 % of control | [14] 90 % of control

O=C(Nc1ccc(F)cc1)Nc1ccc(CCO)cc1
inactive: [15] 99 % of control | dose: 100.0 mg/kg/injection, schedule: Q01DX009 (ip), vehicle: carboxymethylcellulose (CMC) 101 % of control and 104 % of control | dose: 100.0 mg/kg/injection, schedule: Q04DX002 (ip), vehicle: carboxymethylcellulose (CMC) 92 % of control and 87 % of control and 91 % of control | dose: 100.0 mg/kg/injection, schedule: Q04DX003 (ip), vehicle: carboxymethylcellulose (CMC) 95 % of control | [16] 92 % of control | dose: 200.0 mg/kg/injection, schedule: Q01DX009 (ip), vehicle: carboxymethylcellulose (CMC) 92 % of control and 98 % of control | dose: 200.0 mg/kg/injection, schedule: Q04DX002 (ip), vehicle: carboxymethylcellulose (CMC) 87 % of control and 88 % of control and 90 % of control | dose: 200.0 mg/kg/injection, schedule: Q04DX003 (ip), vehicle: carboxymethylcellulose (CMC) 101 % of control | dose: 400.0 mg/kg/injection, schedule: Q01DX009 (ip), vehicle: carboxymethylcellulose (CMC) 92 % of control | dose: 400.0 mg/kg/injection, schedule: Q04DX002 (ip), vehicle: carboxymethylcellulose (CMC) 93 % of control and 87 % of control and 88 % of control | dose: 400.0 mg/kg/injection, schedule: Q04DX003 (ip), vehicle: carboxymethylcellulose (CMC) 91 % of control

COC(=O)CCC(=O)N1CCOCC1
inactive: [1] 88 % of control | [2] 90 % of control | [3] 88 % of control

O=C(CC(O)(C(F)(F)F)C(F)(F)F)CC(O)(C(F)(F)F)C(F)(F)F
inactive: dose: 0.25 mg/kg/injection, schedule: Q01DX009 (ip), vehicle: other 111 % of control | dose: 0.5 mg/kg/injection, schedule: Q01DX009 (ip), vehicle: other 107 % of control and 88 % of control | dose: 1.0 mg/kg/injection, schedule: Q01DX009 (ip), vehicle: other 97 % of control | dose: 1.0 mg/kg/injection, schedule: Q04DX003 (ip), vehicle: other 94 % of control | dose: 1.25 mg/kg/injection, schedule: Q01DX009 (ip), vehicle: saline 95 % of control | dose: 2.0 mg/kg/injection, schedule: Q01DX009 (ip), vehicle: other 108 % of control | dose: 2.0 mg/kg/injection, schedule: Q04DX003 (ip), vehicle: other 87 % of control | dose: 2.5 mg/kg/injection, schedule: Q01DX009 (ip), vehicle: saline with Tween-80 102 % of control | dose: 2.5 mg/kg/injection, schedule: Q01DX009 (ip), vehicle: saline 104 % of control | dose: 3.13 mg/kg/injection, schedule: Q04DX003 (ip), vehicle: other 104 % of control | dose: 5.0 mg/kg/injection, schedule: Q01DX009 (ip), vehicle: saline with Tween-80 97 % of control | dose: 5.0 mg/kg/injection, schedule: Q01DX009 (ip), vehicle: saline 95 % of control

O=C(CI)Nc1ccc(Cl)c(Cl)c1
inactive: dose: 25.0 mg/kg/injection, schedule: Q01DX009 (ip), vehicle: Klucel (hydroxypropylcellulose) (HPC) 95 % of control | [10] 94 % of control | [4] 93 % of control

Clc1ccc2c(c1)Sc1ccc(Cl)cc1S2
inactive: dose: 100.0 mg/kg/injection, schedule: Q04DX002 (ip), vehicle: saline with Tween-80 101 % of control | dose: 200.0 mg/kg/injection, schedule: Q04DX002 (ip), vehicle: saline with Tween-80 101 % of control | dose: 400.0 mg/kg/injection, schedule: Q04DX002 (ip), vehicle: saline with Tween-80 97 % of control

CCN(CC)CCN1C(=O)C2CCCCC2C1=O (centres undefined)
inactive: [1] 101 % of control | [2] 101 % of control | [3] 97 % of control

CC(=O)c1ccc2nc(C)cc(Cl)c2c1
inactive: dose: 100.0 mg/kg/injection, schedule: Q01DX001 (ip), vehicle: saline 96 % of control | dose: 200.0 mg/kg/injection, schedule: Q01DX001 (ip), vehicle: saline 91 % of control | dose: 400.0 mg/kg/injection, schedule: Q01DX001 (ip), vehicle: saline 96 % of control

c1ccc(N2CN(c3ccccc3)CN(c3ccccc3)C2)cc1
inactive: [11] 97 % of control | [14] 101 % of control | [12] 92 % of control | dose: 200.0 mg/kg/injection, schedule: Q04DX002 (ip), vehicle: Klucel (hydroxypropylcellulose) (HPC) 101 % of control | [13] 92 % of control | dose: 400.0 mg/kg/injection, schedule: Q04DX002 (ip), vehicle: Klucel (hydroxypropylcellulose) (HPC) 97 % of control

COc1cc(CC(=O)O)c([N+](=O)[O-])cc1OC
inactive: [15] 97 % of control | [4] 114 % of control | [16] 110 % of control | [6] 103 % of control | dose: 400.0 mg/kg/injection, schedule: Q01DX001 (ip), vehicle: carboxymethylcellulose (CMC) 110 % of control | [8] 101 % of control

CCOC1(OCC)CCS(=O)(=O)C1c1ccccc1 (centres undefined)
inactive: dose: 100.0 mg/kg/injection, schedule: Q01DX001 (ip), vehicle: acetone 104 % of control | dose: 100.0 mg/kg/injection, schedule: Q01DX009 (ip), vehicle: acetone 98 % of control | dose: 200.0 mg/kg/injection, schedule: Q01DX001 (ip), vehicle: acetone 98 % of control | dose: 200.0 mg/kg/injection, schedule: Q01DX009 (ip), vehicle: acetone 104 % of control | dose: 400.0 mg/kg/injection, schedule: Q01DX001 (ip), vehicle: acetone 96 % of control | dose: 400.0 mg/kg/injection, schedule: Q01DX009 (ip), vehicle: acetone 100 % of control

CC1CCc2cccc(NC(=O)NCCCl)c21 (centres undefined)
inactive: [11] 99 % of control | [5] 92 % of control | [12] 91 % of control | [7] 92 % of control | [13] 96 % of control | [9] 92 % of control
